Reference: article PMC11284788, “NN1213 – A Potent, Long-Acting, and Selective Analog of Human Amylin” (Journal of Medicinal Chemistry, 2024)
Where two headings read alike, the source gives them in different places. Numbered stars: 1 amine (or outer) side, 2 acyl side, 3 side chain; on linkers, the order of the positions; unused ones are H or OH. Bridge positions count the residues as written; N and C are the ends. Peptide text beside a SMILES is read from it. * marks the point of attachment. C20 diacid = O=C(O)CCCCCCCCCCCCCCCCCCC(=O)*; γGlu = O=C(O)[C@H](CCC(=O)[*:2])N[*:1]

Experiments:
[1] = molecular target: T1, hAMY3R (Homo sapiens, UniProt O60896+P30988); assay: cAMP-responsive element luciferase reporter assay, human AMY3R; type: cell-based; parameters: expressed in transfected cells; details: for ratio hCTR/hAMY3R: ratio of luciferase EC50 values
T1 sequence (P30988 25-474): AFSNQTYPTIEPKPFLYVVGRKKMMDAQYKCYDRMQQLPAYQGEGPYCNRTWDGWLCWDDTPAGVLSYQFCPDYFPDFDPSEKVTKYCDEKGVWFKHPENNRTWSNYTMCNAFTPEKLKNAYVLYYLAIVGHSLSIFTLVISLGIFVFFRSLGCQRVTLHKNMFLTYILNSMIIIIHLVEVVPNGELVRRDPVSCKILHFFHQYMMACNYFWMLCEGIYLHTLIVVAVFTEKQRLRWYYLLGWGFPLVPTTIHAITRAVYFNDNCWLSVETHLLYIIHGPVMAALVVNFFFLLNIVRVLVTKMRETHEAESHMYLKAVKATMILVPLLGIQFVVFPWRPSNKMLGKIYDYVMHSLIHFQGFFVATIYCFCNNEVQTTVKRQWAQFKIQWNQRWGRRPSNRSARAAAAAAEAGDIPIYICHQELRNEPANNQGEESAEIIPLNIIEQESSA
T1 sequence (O60896 24-148 partner): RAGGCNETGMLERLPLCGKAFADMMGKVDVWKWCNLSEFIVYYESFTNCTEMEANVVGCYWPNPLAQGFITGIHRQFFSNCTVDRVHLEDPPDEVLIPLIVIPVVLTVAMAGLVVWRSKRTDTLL

[2] = molecular target: T2, rAMY3R (Rattus norvegicus, UniProt P32214+Q9JJ73); assay: scintillation proximity binding assay, rAMY3R membranes; parameters: expressed in transfected cells; host or cells: BHK tk-ts 13, transient co-transfection (FuGENE 6); details: for ratio rCTR/rAMY3R: ratio of binding IC50 values
T2 sequence (P32214 25-479 isoform P32214-2 limits assumed): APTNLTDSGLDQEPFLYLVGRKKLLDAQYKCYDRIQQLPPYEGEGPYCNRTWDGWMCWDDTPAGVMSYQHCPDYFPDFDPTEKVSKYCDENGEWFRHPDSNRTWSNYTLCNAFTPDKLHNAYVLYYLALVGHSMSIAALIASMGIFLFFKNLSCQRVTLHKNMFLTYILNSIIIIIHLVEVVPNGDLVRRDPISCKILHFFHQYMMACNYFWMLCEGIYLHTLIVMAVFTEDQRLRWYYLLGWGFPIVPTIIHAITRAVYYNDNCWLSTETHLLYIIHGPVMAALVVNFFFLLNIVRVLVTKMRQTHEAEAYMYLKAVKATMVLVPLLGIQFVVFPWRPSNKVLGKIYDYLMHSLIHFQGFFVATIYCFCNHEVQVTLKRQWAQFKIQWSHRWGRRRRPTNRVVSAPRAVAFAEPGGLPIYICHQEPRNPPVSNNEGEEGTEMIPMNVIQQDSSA
T2 sequence (Q9JJ73 23-147 partner): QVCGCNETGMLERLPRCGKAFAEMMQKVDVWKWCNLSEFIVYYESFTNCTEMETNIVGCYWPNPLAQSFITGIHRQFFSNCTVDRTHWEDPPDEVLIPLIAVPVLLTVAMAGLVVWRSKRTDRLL
Description: (§1) The apparent binding affinities were determined using a scintillation proximity assay with beads from PerkinElmer and cell membranes containing the AMY3R or CTRs. […] Membranes were harvested and membranes were prepared and kept at −80 °C until use. The assay was performed in a 384-well Optiplate (PerkinElmer). Membranes were mixed with scintillation proximity assay beads in a 1:1 ratio. […] Samples were analyzed on a TopCounter (Packard). The IC50 values were calculated using GraphPad Prism. See Supporting Information S7: SAR Screening Assay Methods (Binding Assays (Human and Rat)) for more information.
(§2) Binding Assays (Human and Rat). Brief descriptions of the methods used to determine binding affinities for SAR analysis are described below. Curves and IC50 values were plotted and calculated in GraphPad Prism using nonlinear regression (one site binding competition analysis), with pIC50 values […]
(§3) values were used to calculate the binding affinity ratios in order to express the selectivity of compounds for the AMY3R versus the CTR.
(§4) CTR Binding Assay. The binding assay was performed using scintillation proximity assay (SPA) beads (RPNQ0001) from PerkinElmer and cell membranes containing either the hCTR or rCTR. BHK […]
(§5) Membranes were prepared in the following way: the cells were rinsed with PBS and incubated with Versene for approximately 5 min before harvesting. The cells were flushed with PBS and the cell-suspension was centrifuged for 5 min at 1000 rpm. Cells were homogenized (Ultra Turrax) in a buffer […]
(§6) containing 20 mM Na-HEPES and 0.1 mM EDTA (pH 7.4, buffer 2). The resulting pellet was re-suspended in buffer 2 and protein concentration was measured (BCA protein assay, Pierce). The homogenate was kept cold during the whole procedure. The membranes were stored at –80 °C until […]
(§7) The binding assay was performed in a 384-well Optiplate (PerkinElmer) in a total volume of 40 μL.
(§8) Membranes were mixed with SPA beads in a 1:1 ratio. […]
(§9) mg/well. Test compounds were dissolved in DMSO and further diluted in assay buffer (50 mM HEPES, pH 7.4, 1 mM CaCl2, 5 mM MgCl2, 0.1% ovalbumin, and 0.02% Tween-20).
(§10) Calcitonin (NEX422 PerkinElmer) was dissolved in assay buffer and added to the Optiplate at a final […]
(§11) prior to centrifugation (1500 rpm, 10 min). Samples were analyzed on TopCounter (Packard).
(§12) AMY3R Binding Assay. The binding assay was performed using SPA beads (RPNQ0001) from PerkinElmer and cell membranes containing either the hAMY3R or rAMY3R. BHK tk-ts 13 cells were […]
as §5, with “and cultured as described above. Membranes” for “Membranes”, “buffer containing 20 mM Na-HEPES and 10 mM EDTA (pH 7.4), and” for “buffer”
(§13) The resulting pellet was re-suspended, homogenized, and
(§14) 7.4, buffer 2). The resulting pellet was re-suspended in buffer 2 and protein concentration was measured (BCA protein assay, Pierce). The homogenate was kept cold during the whole procedure.
(§15) The membranes were stored at –80 °C until use.
(§16) Membranes were mixed with SPA beads in a 1:1 ratio. The final concentration of SPA beads was 0.05 mg/well. Test compounds were dissolved in DMSO and further diluted in assay buffer (50 mM […]
(§17) rAMY (NEX448 PerkinElmer) was dissolved in assay buffer and added to the Optiplate at a final

[3] = molecular target: T1, hAMY3R; assay: scintillation proximity binding assay, hAMY3R membranes; parameters: expressed in transfected cells; host or cells: BHK tk-ts 13, transient co-transfection; membranes for the SPA, whole cells for the species-specific assays; details: for ratio hCTR/hAMY3R: ratio of binding IC50 values
Description: as §1, §2, §3, §4, §5, §6, §7, §8, §9, §10, §11, §12
as §5, with “and cultured as described above. Membranes” for “Membranes”, “buffer containing 20 mM Na-HEPES and 10 mM EDTA (pH 7.4), and” for “buffer”
as §13, §14, §15, §16, §17

[4] = luciferase (human receptor assay), BHK cells stably expressing hCTR+RAMP3 and CRE-luciferase, 3 h, 37 °C, 10% FBS, read-out: hAMY3R EC50
[5] = SPA binding assay, Tables S13 and S15
[6] = luciferase (human receptor assay), Tables S12 and S14, read-out: hAMY3R pEC50 (converted)

| hAMY3R pEC50 ([1]; luciferase (human receptor assay), Tables S12 and S14) | EC50 [1, 4] [nM] | ratio hCTR/hAMY3R [1] | rAMY3R pIC50 [2, 5] | ratio rCTR/rAMY3R [2] | hAMY3R pIC50 [3, 5] | ratio hCTR/hAMY3R [3] | EC50 [1, 6] [nM] | IC50 ([2]; SPA binding assay, Tables S13 and S15, read-out: rAMY3R pIC50 (converted)) [nM] | IC50 ([2]; SPA, BHK cell membranes, 125I-rat amylin, 120 min 25 °C, read-out: rAMY3R IC50) [nM] | IC50 ([3]; SPA binding assay, Tables S13 and S15, read-out: hAMY3R pIC50 (converted)) [nM] | IC50 ([3]; SPA, BHK cell membranes, 125I-rat amylin, 120 min 25 °C, read-out: hAMY3R IC50) [nM] | Structure (SMILES) |
| --- | --- | --- | --- | --- | --- | --- | --- | --- | --- | --- | --- | --- |
| 9.36 | 0.432 | 23 | 8.52 | 116 | 8.94 | 90 | – | – | – | – | – | CC[C@H](C)[C@H](NC(=O)[C@H](C)NC(=O)CNC(=O)[C@H](Cc1ccccc1)NC(=O)[C@H](CC(N)=O)NC(=O)[C@@H]1CCCN1C(=O)[C@H](CO)NC(=O)[C@H](CO)NC(=O)[C@H](Cc1c[nH]cn1)NC(=O)[C@H](CCCNC(=N)N)NC(=O)[C@H](CC(C)C)NC(=O)[C@H](Cc1ccccc1)NC(=O)[C@H](CC(N)=O)NC(=O)[C@H](C)NC(=O)[C@H](CC(C)C)NC(=O)[C@H](CCCNC(=N)N)NC(=O)[C@H](CCC(N)=O)NC(=O)[C@@H](NC(=O)[C@H](C)NC(=O)[C@@H]1CSSC[C@H](NC(=O)[C@H](CCCCN)NC(=O)COCCOCCNC(=O)COCCOCCNC(=O)CC[C@H](NC(=O)CCCCCCCCCCCCCCCCCCC(=O)O)C(=O)O)C(=O)N[C@@H](CC(N)=O)C(=O)N[C@@H]([C@@H](C)O)C(=O)N[C@@H](C)C(=O)N[C@@H]([C@@H](C)O)C(=O)N1)[C@@H](C)O)C(=O)N1CCC[C@H]1C(=O)N[C@@H](CO)C(=O)N[C@@H](CO)C(=O)N[C@H](C(=O)N[C@@H](CC(N)=O)C(=O)N[C@H](C(=O)NCC(=O)N[C@@H](CO)C(=O)N[C@@H](CC(N)=O)C(=O)N[C@H](C(=O)N[C@@H](Cc1ccc(O)cc1)C(N)=O)[C@@H](C)O)C(C)C)[C@@H](C)O [Peptide 10] |
| – | 0.186 | 11 | – | 44 | – | 20 | 0.186 | 1.17 | 1.17 | 0.589 | 0.589 | CC[C@H](C)[C@H](NC(=O)[C@H](C)NC(=O)CNC(=O)[C@H](Cc1ccccc1)NC(=O)[C@H](CC(N)=O)NC(=O)[C@@H]1CCCN1C(=O)[C@H](CO)NC(=O)[C@H](CO)NC(=O)[C@H](Cc1c[nH]cn1)NC(=O)[C@H](CCCNC(=N)N)NC(=O)[C@H](CC(C)C)NC(=O)[C@H](Cc1ccccc1)NC(=O)[C@H](CC(N)=O)NC(=O)[C@H](C)NC(=O)[C@H](CC(C)C)NC(=O)[C@H](CCCNC(=N)N)NC(=O)[C@H](CCC(N)=O)NC(=O)[C@@H](NC(=O)[C@H](C)NC(=O)[C@@H]1CSSC[C@H](NC(=O)[C@H](CCCCN)NC(=O)CC[C@H](NC(=O)CCCCCCCCCCCCCCCCCCC(=O)O)C(=O)O)C(=O)N[C@@H](CC(N)=O)C(=O)N[C@@H]([C@@H](C)O)C(=O)N[C@@H](C)C(=O)N[C@@H]([C@@H](C)O)C(=O)N1)[C@@H](C)O)C(=O)N1CCC[C@H]1C(=O)N[C@@H](CO)C(=O)N[C@@H](CO)C(=O)N[C@H](C(=O)N1CCC[C@H]1C(=O)N[C@H](C(=O)NCC(=O)N[C@@H](CO)C(=O)N[C@@H](CCC(=O)O)C(=O)N[C@H](C(=O)N[C@@H](Cc1ccc(O)cc1)C(N)=O)[C@@H](C)O)C(C)C)[C@@H](C)O [Peptide 11] ({C20 diacid-γGlu}-KCNTATCATQRLANFLRHSSPNFGAIPSSTPVGSETY-NH2; disulfide 2-7) |
| – | 0.047 | 6.7 | 9.75 | 34 | – | 11 | 0.0468 | – | – | – | – | CC[C@H](C)[C@H](NC(=O)[C@H](C)NC(=O)CNC(=O)[C@H](Cc1ccccc1)NC(=O)[C@H](CC(N)=O)NC(=O)[C@@H]1CCCN1C(=O)[C@H](CO)NC(=O)[C@H](CO)NC(=O)[C@H](Cc1c[nH]cn1)NC(=O)[C@H](CCCNC(=N)N)NC(=O)[C@H](CC(C)C)NC(=O)[C@H](Cc1ccccc1)NC(=O)[C@H](CCC(=O)O)NC(=O)[C@H](C)NC(=O)[C@H](CC(C)C)NC(=O)[C@H](CCCNC(=N)N)NC(=O)[C@H](CCC(N)=O)NC(=O)[C@@H](NC(=O)[C@H](C)NC(=O)[C@@H]1CSSC[C@H](NC(=O)[C@H](CCCCN)NC(=O)CC[C@H](NC(=O)CCCCCCCCCCCCCCCCCCC(=O)O)C(=O)O)C(=O)N[C@@H](CC(N)=O)C(=O)N[C@@H]([C@@H](C)O)C(=O)N[C@@H](C)C(=O)N[C@@H]([C@@H](C)O)C(=O)N1)[C@@H](C)O)C(=O)N1CCC[C@H]1C(=O)N[C@@H](CO)C(=O)N[C@@H](CO)C(=O)N[C@H](C(=O)N[C@@H](CC(N)=O)C(=O)N[C@H](C(=O)NCC(=O)N1CCC[C@H]1C(=O)N[C@@H](CC(N)=O)C(=O)N[C@H](C(=O)N[C@@H](Cc1ccc(O)cc1)C(N)=O)[C@@H](C)O)C(C)C)[C@@H](C)O [Peptide 12] ({C20 diacid-γGlu}-KCNTATCATQRLAEFLRHSSPNFGAIPSSTNVGPNTY-NH2; disulfide 2-7) |
